Earlier results as cited in patent US20230056424A1, “PREVENTION OF THE CONVERSION OF PHARMACEUTICAL AGENTS INTO TOXIC N-NITROSAMINE COMPOUNDS” (ALFRED E. TIEFENBACHER (GMBH & CO. KG), priority 2021, published 2023).

Details: standards established by the health authorities

SMILES: O=NN1C[C@H]2C[C@@H](C1)c1cc3nccnc3cc12 [N-nitroso-varenicline]
- maximum allowed daily intake: 37 ng/day
